Laboratory results published in patent publication US9644194B2, “Cold-adapted protease derived from Pseudoalteromonas arctica PAMC 21717 and uses thereof” (KOREA INSTITUTE OF OCEAN SCIENCE & TECHNOLOGY, priority 2014, dated 2017).

Legend:
W-Pro21717 [1] = test: Activity and stability of W-Pro21717 in the presence of metal ions and surfactants; type: biochemical, Pseudoalteromonas arctica PAMC 21717; details: 1 mM, on ice for 1 hour, FIG. 3; for influence on the activity of W-Pro21717: result in words
Procedure: In order to analyze the influence of metal ions and detergents, W-[…] was allowed to react with a standard buffer containing 1 mM BaCl2, CuSO4, MgSO4, CaCl2, ZnSO4, FePO4, KCl, NaCl, […], sodium linear alkylbenzene sulfonate (LAS) or SDS on ice for 1 hour. In addition, the compatibility of W-[…] with a commercial detergent (LG Household & Health Care, Korea; containing subtilisin Carlsberg) was analyzed using skim milk at temperatures of 10° C. and 30° C.

W-Pro21717 [2] = test: Effect of protease inhibitors on W-Pro21717 activity; type: biochemical, Pseudoalteromonas arctica PAMC 21717; details: result in words
Procedure: (§1) The reaction solution was centrifuged, and then filtered through a filter having a pore size of 0.45 μm, and the filtrate was mixed and reacted with Folin & Ciocalteu's phenol solution and 500 mM sodium carbonate solution at 37° C. for 30 minutes. Next, the enzymatic activity of the reaction product was measured at 660 nm based on an L-tyrosine standard curve, and an amino acid production of 1 nmole/min/mg at 25° C. was defined as the activity of 1 unit of protease.
The kind of W-Pro21717 was analyzed by reactions with various protease inhibitors.

[3] = Substrate specificity of W-Pro21717 with synthetic peptides; type: biochemical; details: 25° C., 10 minutes, 410 nm
Procedure: The substrate specificity of W-Pro21717 was analyzed using 5 mM of each of the following 7 different synthetic peptides: N-succinyl-Ala-Ala-Val-p-nitroanilide (AAV), N-succinyl-Ala-Ala-Pro-Leu-p-nitroanilide (AAPL), N-succinyl-Ala-Ala-Ala-p-nitroanilide (AAA), N-succinyl-Gly-Gly-Phe-p-nitroanilide (GGF), N-succinyl-Thr-Leu-Val-p-nitroanilide (TLV), N-succinyl-Ala-Ala-Pro-Phe-p-nitroanilide (AAPF), and N-succinyl-Ala-Ala-Val-Ala-p-nitroanilide (AAVA). W-Pro21717 was allowed to react with a standard buffer containing 0.83 mM substrate at 25° C. for 10 minutes, and then the relative activity thereof was measured at 410 nm.

azocasein [4] = test: Activity and stability of W-Pro21717 with temperature and pH; type: biochemical
Procedure: as §1, with “In order to measure the degradation activity of W-Pro21717, the cultured PAMC 21717 cells were centrifuged at 4° C. at 12,000×g for 30 minutes, and the supernatant was mixed with 50 mM sodium phosphate buffer (pH 7.6) containing 0.65% azocasein substrate, and was allowed to at 25° C. for 1 hour, and then additionally allowed to react at 37° C. for 1 hour after adding 110 mM trichloroacetic acid thereto. The” for “The”
A temperature optimal for the activity of W-Pro21717 was analyzed in the temperature range of 0 to 60° C., and the optimum pH was analyzed by 1-hour reactions in 50 mM sodium acetate (pH 2.0-6.0), 50 mM potassium phosphate (pH 7.0-10.0) and 50 mM sodium tetraborate (pH 10.0). As a control, 3 μg of the commercial protease Carlsberg subtilisin was used.

azocasein [5] = test: Activity and stability of R-Pro21717 with temperature and pH; type: biochemical
Procedure: In order to determine a temperature optimal for the activity of the protease, R-Pro21717 was allowed to react at varying temperatures of 0˜70° C., and then analyzed. The stability of R-Pro21717 against temperature was analyzed by allowing R-Pro21717 at varying temperatures of 0˜70° C. for 1 hour, and then allowing R-Pro21717 to react a 0.65% azocasein-containing standard buffer at 30° C. for 30 minutes. As a control enzyme, Carlsberg subtilisin was used.
In order to determine a pH optimal for the activity of the protease, R-Pro21717-containing buffers having varying pHs were allowed to react at 30° C., and then analyzed. The stability of R-Pro21717 against pH was analyzed by allowing R-Pro21717-containing buffers having varying pHs to react on ice for 1 hour, and then reacting R-Pro21717 in 0.65% azocasein-containing standard buffer at 30° C. for 30 minutes. Carlsberg subtilisin was used as a control enzyme and analyzed at a reaction temperature of 40° C.

Molecule: [Ba+2].[Cl-].[Cl-] [Ba^2+, BaCl2]
- influence on the activity of W-Pro21717 (W-Pro21717 [1]): did not influence

Molecule: O=S(=O)([O-])[O-].[Zn+2] [Zn^2+, ZnSO4]
- influence on the activity of W-Pro21717 (W-Pro21717 [1]): did not influence

Molecule: O=S(=O)([O-])[O-].[Mg+2] [Mg^2+, MgSO4]
- influence on the activity of W-Pro21717 (W-Pro21717 [1]): did not influence

Molecule: O=S(=O)([O-])[O-].[Cu+2] [CuSO4]
- increase of the activity of W-Pro21717 (W-Pro21717 [1]): about 60%

Molecule: [Fe+2] [Fe^2+, FePO4]
- influence on the activity of W-Pro21717 (W-Pro21717 [1]): did not influence

Molecule: O=S(=O)(F)Cc1ccccc1 [PMSF]
- effect of inhibitor on the activity of W-Pro21717 (W-Pro21717 [2]): inhibited

Molecule: O=C(O)CN(CCN(CC(=O)O)CC(=O)O)CC(=O)O [EDTA]
- effect of inhibitor on the activity of W-Pro21717 (W-Pro21717 [2]): slightly inhibited

Molecule: [Ca+2].[Cl-].[Cl-] [Ca^2+, CaCl2]
- influence on the activity of W-Pro21717 (W-Pro21717 [1]): did not influence

Molecule: [Cl-].[K+] [K^+, KCl]
- influence on the activity of W-Pro21717 (W-Pro21717 [1]): did not influence

Molecule: [Cl][Hg][Cl] [HgCl2]
- effect of inhibitor on the activity of W-Pro21717 (W-Pro21717 [2]): inhibited

Molecule: [Cl-].[Na+] [Na^2+, NaCl]
- influence on the activity of W-Pro21717 (W-Pro21717 [1]): did not influence

B1: Subtilisin Carlsberg: commercial protease used as control enzyme (protein, UniProt P00780 106-379, looked up)
Subtilisin Carlsberg: AQTVPYGIPLIKADKVQAQGFKGANVKVAVLDTGIQASHPDLNVVGGASFVAGEAYNTDGNGHGTHVAGTVAALDNTTGVLGVAPSVSLYAVKVLNSSGSGSYSGIVSGIEWATTNGMDVINMSLGGASGSTAMKQAVDNAYAKGVVVVAAAGNSGSSGNTNTIGYPAKYDSVIAVGAVDSNSNRASFSSVGAELEVMAPGAGVYSTYPTNTYATLNGTSMASPHVAGAAALILSKHPNLSASQVRNRLSSTATYLGSSFYYGKGLINVEAAAQ
- Relative activity (%) ([3]; substrate AAPF): 100%
- Relative activity (%) ([3]; substrate GGF): 0%
- temperature optimal for the activity (azocasein [4]; tested 0 to 60° C., FIG. 2A): 60 °C
- decrease in activity after a reaction at 40° C. for 1 hour (azocasein [4]; thermal stability, FIG. 2B): 80%
- temperature at which stability / enzymatic activity decreases (azocasein [5]; 1 hour at temperature, then azocasein 30° C. 30 minutes, FIG. 9B): ≥ 50 °C
- pH of highest activity (azocasein [5]; FIG. 9C): same results as those of R-Pro21717
- pH optimal for the stability (azocasein [5]; on ice for 1 hour, FIG. 9D): same results as those of R-Pro21717
- proteolytic activity at low temperature relative to the highest activity (azocasein [5]; printed 'at or'): did not show proteolytic activity
- temperature optimal for the activity (azocasein [5]; tested 0˜70° C., FIG. 9A): 60 °C
